In patent US10093630B2, “Pyrazole compounds and methods of making and using same” (ABIDE THERAPEUTICS, INC., priority 2014, dated 2018):

Columns and labels:
Experiment in all cases: In vitro competitive activity-based protein profiling (gel-based, FP-Rh or HT-01 probe)
Assay type in all cases: biochemical
PLA2G7 = molecular target: T1, PLA2G7 (Mus musculus, UniProt Q60963); conditions: for inhibition at 1 µM: 1 μM inhibitor, read-out: % Inhibition at 1 μM, D = PLA2G7; for inhibition at 10 µM: 10 μM inhibitor, read-out: % Inhibition at 10 μM, D = PLA2G7
T1 construct: Proteomes (mouse brain membrane fraction or cell lysates); from tissue; host or cells: mouse brain membrane fraction (or cell lysates, not specified)
T1 sequence (Q60963 22-440): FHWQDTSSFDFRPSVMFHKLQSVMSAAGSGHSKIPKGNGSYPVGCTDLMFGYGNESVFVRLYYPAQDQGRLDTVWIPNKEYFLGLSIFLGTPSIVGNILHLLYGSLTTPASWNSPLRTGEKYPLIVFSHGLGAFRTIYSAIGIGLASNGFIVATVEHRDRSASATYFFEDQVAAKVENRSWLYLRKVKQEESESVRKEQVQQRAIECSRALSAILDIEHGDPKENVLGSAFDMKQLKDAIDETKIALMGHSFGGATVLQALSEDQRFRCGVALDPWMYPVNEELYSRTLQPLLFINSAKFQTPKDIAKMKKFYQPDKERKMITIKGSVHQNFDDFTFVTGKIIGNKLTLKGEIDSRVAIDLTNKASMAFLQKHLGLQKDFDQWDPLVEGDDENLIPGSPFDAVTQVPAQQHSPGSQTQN
Method: (§1) In Vitro Competitive Activity-Based Protein Profiling.
(§2) Proteomes (mouse brain membrane fraction or cell lysates) (50 μL, 1.0 mg/mL total protein concentration) were preincubated with varying concentrations of inhibitors at 37° C. After 30 min, FP-Rh or HT-01 ([…], 50 μM in DMSO) was added and the mixture was incubated for another 30 min at 37° C. Reactions were quenched with SDS loading buffer (15 μL—4×) and run on SDS-PAGE. Following gel imaging, serine hydrolase activity was determined by measuring fluorescent intensity of gel bands corresponding to MAGL, ABHD6, FAAH, and PLA2G7 using ImageJ 1.43u software.

FAAH = molecular target: T2, FAAH (Mus musculus, UniProt O08914); conditions: for inhibition at 1 µM: 1 μM inhibitor, read-out: % Inhibition at 1 μM, B = FAAH; for inhibition at 10 µM: 10 μM inhibitor, read-out: % Inhibition at 10 μM, B = FAAH
T2 construct: Proteomes (mouse brain membrane fraction or cell lysates); from tissue; host or cells: mouse brain membrane fraction (or cell lysates, not specified)
T2 sequence (O08914 1-579): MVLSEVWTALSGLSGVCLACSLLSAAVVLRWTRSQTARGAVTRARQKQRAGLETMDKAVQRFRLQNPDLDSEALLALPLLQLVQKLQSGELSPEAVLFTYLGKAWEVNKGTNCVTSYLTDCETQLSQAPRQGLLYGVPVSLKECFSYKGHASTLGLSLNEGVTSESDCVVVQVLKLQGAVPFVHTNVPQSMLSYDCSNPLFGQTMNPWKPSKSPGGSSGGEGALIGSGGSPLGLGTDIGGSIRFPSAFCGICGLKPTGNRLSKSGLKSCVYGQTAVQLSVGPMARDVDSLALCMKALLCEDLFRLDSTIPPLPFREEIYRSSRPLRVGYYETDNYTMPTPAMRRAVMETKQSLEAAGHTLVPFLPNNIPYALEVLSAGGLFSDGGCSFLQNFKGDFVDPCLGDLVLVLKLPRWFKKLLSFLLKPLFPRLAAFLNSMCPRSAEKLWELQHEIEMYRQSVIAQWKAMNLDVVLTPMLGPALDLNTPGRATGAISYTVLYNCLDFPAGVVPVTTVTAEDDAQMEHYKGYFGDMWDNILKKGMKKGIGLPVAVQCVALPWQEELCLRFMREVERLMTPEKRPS
Method: as §1, §2

MAGL = molecular target: T3, MAGL (Mus musculus, UniProt O35678); conditions: for inhibition at 1 µM: 1 μM inhibitor; for inhibition at 10 µM: 10 μM inhibitor; for IC50: mouse brain membrane fraction or cell lysates, 30 min preincubation at 37° C., read-out: Mouse (IC50 value, nM) MAGL
T3 construct: Proteomes (mouse brain membrane fraction or cell lysates); from tissue; host or cells: mouse brain membrane fraction (or cell lysates, not specified)
T3 sequence (O35678 1-303): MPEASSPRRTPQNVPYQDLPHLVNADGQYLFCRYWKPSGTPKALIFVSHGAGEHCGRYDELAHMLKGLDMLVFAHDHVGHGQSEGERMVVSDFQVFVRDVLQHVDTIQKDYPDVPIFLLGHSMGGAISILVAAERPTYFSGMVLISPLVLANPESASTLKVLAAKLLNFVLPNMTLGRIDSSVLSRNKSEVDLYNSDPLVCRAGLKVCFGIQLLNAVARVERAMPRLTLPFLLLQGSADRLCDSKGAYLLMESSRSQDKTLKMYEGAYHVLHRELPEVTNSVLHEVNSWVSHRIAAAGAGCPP
Method: as §1, §2

ABHD6 = molecular target: T4, ABHD6 (Mus musculus, UniProt Q8R2Y0); conditions: for inhibition at 1 µM: 1 μM inhibitor, read-out: % Inhibition at 1 μM, C = ABHD6; for inhibition at 10 µM: 10 μM inhibitor, read-out: % Inhibition at 10 μM, C = ABHD6
T4 construct: Proteomes (mouse brain membrane fraction or cell lysates); from tissue; host or cells: mouse brain membrane fraction (or cell lysates, not specified)
T4 sequence (Q8R2Y0 1-336): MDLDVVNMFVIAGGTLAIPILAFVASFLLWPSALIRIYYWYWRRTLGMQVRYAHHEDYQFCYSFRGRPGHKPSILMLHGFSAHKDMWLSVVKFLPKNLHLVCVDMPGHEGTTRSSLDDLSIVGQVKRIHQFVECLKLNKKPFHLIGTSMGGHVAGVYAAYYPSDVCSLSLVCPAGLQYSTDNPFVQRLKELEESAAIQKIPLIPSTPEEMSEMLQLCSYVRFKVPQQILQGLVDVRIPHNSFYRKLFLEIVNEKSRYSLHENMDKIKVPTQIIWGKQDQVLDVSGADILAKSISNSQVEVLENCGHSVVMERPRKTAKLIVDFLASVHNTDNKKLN
Method: as §1, §2

inhibition at 1 µM (PLA2G7) [%] | inhibition at 10 µM (PLA2G7) [%] | inhibition at 1 µM (FAAH) [%] | inhibition at 10 µM (FAAH) [%] | inhibition at 1 µM (MAGL) [%] | inhibition at 10 µM (MAGL) [%] | inhibition at 1 µM (ABHD6) [%] | inhibition at 10 µM (ABHD6) [%] | IC50 (FAAH; mouse brain membrane fraction or cell lysates, 30 min preincubation at 37° C., read-out: Mouse (IC50 value, nM) FAAH) [nM] | IC50 (MAGL) [nM] | IC50 (ABHD6; mouse brain membrane fraction or cell lysates, 30 min preincubation at 37° C., read-out: Mouse (IC50 value, nM) ABHD6) [nM] | Structure (SMILES)
< 25 | > 75 | < 25 | 25 to 75 | 25 to 75 | > 75 | > 75 | > 75 | – | – | – | Cc1cnn(C(=O)N2CCN(Cc3ccccc3)CC2)c1 [Example 8, (4-Benzylpiperazin-1-yl)(4-methyl-1H-pyrazol-1-yl)methanone]
< 25 | < 25 | > 75 | > 75 | > 75 | > 75 | > 75 | > 75 | – | < 100 | – | O=C(N1CCN(Cc2ccc3ccccc3c2)CC1)n1cccn1 [Example 10, (4-(naphthalen-2-ylmethyl)piperazin-1-yl)(1H-pyrazol-1-yl)methanone]
< 25 | > 75 | < 25 | 25 to 75 | > 75 | > 75 | > 75 | > 75 | – | – | – | Cc1cnn(C(=O)N2CCN(Cc3ccc4ccccc4c3)CC2)c1 [Example 11, (4-Methyl-1H-pyrazol-1-yl)(4-(naphthalen-2-ylmethyl)piperazin-1-yl)methanone]
> 75 | > 75 | > 75 | > 75 | > 75 | > 75 | > 75 | > 75 | – | – | – | N#Cc1cnn(C(=O)N2CCN(Cc3ccc4ccccc4c3)CC2)c1 [Example 12, 1-(4-(Naphthalen-2-ylmethyl)piperazine-1-carbonyl)-1H-pyrazole-4-carbonitrile]
> 75 | > 75 | > 75 | > 75 | > 75 | > 75 | > 75 | > 75 | – | – | – | O=C(N1CCN(Cc2ccc3ccccc3c2)CC1)n1cc(Br)cn1 [Example 13, (4-Bromo-1H-pyrazol-1-yl)(4-(naphthalen-2-ylmethyl)piperazin-1-yl)methanone]
> 75 | > 75 | > 75 | > 75 | > 75 | > 75 | > 75 | > 75 | – | – | – | O=C(N1CCN(Cc2ccc3ccccc3c2)CC1)n1cc(I)cn1 [Example 14, (4-Iodo-1H-pyrazol-1-yl)(4-(naphthalen-2-ylmethyl)piperazin-1-yl)methanone]
> 75 | > 75 | > 75 | > 75 | > 75 | > 75 | > 75 | > 75 | – | – | – | COC(=O)c1cnn(C(=O)N2CCN(Cc3ccc4ccccc4c3)CC2)c1 [Example 15, Methyl 1-(4-(naphthalen-2-ylmethyl)piperazine-1-carbonyl)-1H-pyrazole-4-carboxylate]
25 to 75 | < 25 | 25 to 75 | > 75 | > 75 | > 75 | > 75 | > 75 | – | – | – | Cc1cnn(C(=O)N2CCN(Cc3ccc(Oc4ccccc4)cc3)CC2)c1 [Example 17, (4-Methyl-1H-pyrazol-1-yl)(4-(4-phenoxybenzyl)piperazin-1-yl)methanone]

Further lines, the molecule ahead of its results:

Structure (SMILES) | inhibition at 1 µM (PLA2G7) [%] | inhibition at 10 µM (PLA2G7) [%] | inhibition at 1 µM (FAAH) [%] | inhibition at 10 µM (FAAH) [%] | inhibition at 1 µM (MAGL) [%] | inhibition at 10 µM (MAGL) [%] | inhibition at 1 µM (ABHD6) [%] | inhibition at 10 µM (ABHD6) [%] | IC50 (FAAH; mouse brain membrane fraction or cell lysates, 30 min preincubation at 37° C., read-out: Mouse (IC50 value, nM) FAAH) [nM] | IC50 (MAGL) [nM] | IC50 (ABHD6; mouse brain membrane fraction or cell lysates, 30 min preincubation at 37° C., read-out: Mouse (IC50 value, nM) ABHD6) [nM]
CC(C)(C)OC(=O)N1CCN(C(=O)n2cccn2)CC1 [Example 4, tert-Butyl 4-(1H-pyrazole-1-carbonyl)piperazine-1-carboxylate] | < 25 | > 75 | > 75 | > 75 | < 25 | 25 to 75 | 25 to 75 | > 75 | – | – | –
Cc1cnn(C(=O)N2CCN(C(=O)OC(C)(C)C)CC2)c1 [Example 5, tert-Butyl 4-(4-methyl-1H-pyrazole-1-carbonyl)piperazine-1-carboxylate] | > 75 | > 75 | < 25 | > 75 | < 25 | 25 to 75 | 25 to 75 | > 75 | – | – | –
CC(C)(C)OC(=O)N1CCN(C(=O)n2cc(C#N)cn2)CC1 [Example 6, tert-Butyl 4-(4-cyano-1H-pyrazole-1-carbonyl)piperazine-1-carboxylate] | > 75 | > 75 | > 75 | > 75 | > 75 | > 75 | > 75 | > 75 | – | – | –
O=C(N1CCN(Cc2ccccc2)CC1)n1cccn1 [Example 7, (4-Benzylpiperazin-1-yl)(1H-pyrazol-1-yl)methanone] | < 25 | < 25 | < 25 | > 75 | > 75 | > 75 | < 25 | > 75 | – | – | –
N#Cc1cnn(C(=O)N2CCN(Cc3ccccc3)CC2)c1 [Example 9, 1-(4-Benzylpiperazine-1-carbonyl)-1H-pyrazole-4-carbonitrile] | > 75 | > 75 | > 75 | > 75 | > 75 | > 75 | > 75 | > 75 | 100 to 1000 | < 100 | < 100
O=C(N1CCN(Cc2ccc(Oc3ccccc3)cc2)CC1)n1cccn1 [Example 16, (4-(4-Phenoxybenzyl)piperazin-1-yl)(1H-pyrazol-1-yl)methanone] | < 25 | > 75 | < 25 | > 75 | > 75 | > 75 | > 75 | > 75 | – | – | –
